From ChEMBL document CHEMBL4507329, “Data for DCP probe BTZO-1” (2021)

Experiments:
[1] = target: Misshapen-like kinase 1 (Homo sapiens) (UniProt Q8N4C8); details: Compound concentration 1000.0 nM
[2] = system: Mast/stem cell growth factor receptor Kit (Homo sapiens), P10721 [V559D,T670I]; details: Compound concentration 1000.0 nM
[3] = target: Protein kinase C iota type (Homo sapiens) (UniProt P41743); details: Compound concentration 1000.0 nM
[4] = target: Phosphatidylinositol 4-kinase beta (Homo sapiens) (UniProt Q9UBF8); details: Compound concentration 1000.0 nM
[5] = target: Activated CDC42 kinase 1 (Homo sapiens) (UniProt Q07912); details: Compound concentration 1000.0 nM
[6] = target: Serine/threonine-protein kinase Nek3 (Homo sapiens) (UniProt P51956); details: Compound concentration 1000.0 nM
[7] = target: Mitogen-activated protein kinase 11 (Homo sapiens) (UniProt Q15759); details: Compound concentration 1000.0 nM
[8] = target: Serine/threonine-protein kinase ICK (Homo sapiens) (UniProt Q9UPZ9); details: Compound concentration 1000.0 nM
[9] = system: Hepatocyte growth factor receptor (Homo sapiens), P08581 [M1250T]; details: Compound concentration 1000.0 nM
[10] = system: Tyrosine-protein kinase ABL1 (Homo sapiens), P00519 [Y253F]; details: Compound concentration 1000.0 nM
[11] = target: Calcium/calmodulin-dependent protein kinase type IV (Homo sapiens) (UniProt Q16566); details: Compound concentration 1000.0 nM
[12] = target: Serine/threonine-protein kinase BRSK1 (Homo sapiens) (UniProt Q8TDC3); details: Compound concentration 1000.0 nM
[13] = target: Serine/threonine-protein kinase DCLK1 (Homo sapiens) (UniProt O15075); details: Compound concentration 1000.0 nM
[14] = target: Cyclin-dependent kinase 13 (Homo sapiens) (UniProt Q14004); details: Compound concentration 1000.0 nM
[15] = target: Inhibitor of nuclear factor kappa-B kinase subunit epsilon (Homo sapiens) (UniProt Q14164); details: Compound concentration 1000.0 nM
[16] = target: Serine/threonine-protein kinase D3 (Homo sapiens) (UniProt O94806); details: Compound concentration 1000.0 nM
[17] = target: Serine/threonine-protein kinase 33 (Homo sapiens) (UniProt Q9BYT3); details: Compound concentration 1000.0 nM
[18] = target: Activin receptor type-1-like (Homo sapiens) (UniProt P37023); details: Compound concentration 1000.0 nM
[19] = target: Serine/threonine-protein kinase PAK 2 (Homo sapiens) (UniProt Q13177); details: Compound concentration 1000.0 nM
[20] = target: Cyclin-dependent kinase 14 (Homo sapiens) (UniProt O94921); details: Compound concentration 1000.0 nM
[21] = system: Tyrosine-protein kinase ABL1 (Homo sapiens), P00519 [F317L]; details: Compound concentration 1000.0 nM
[22] = target: Beta-1 adrenergic receptor (Homo sapiens) (UniProt P08588); details: Compound concentration 10.0 uM
[23] = target: Mitogen-activated protein kinase kinase kinase 7 (Homo sapiens) (UniProt O43318); details: Compound concentration 1000.0 nM
[24] = target: Serine/threonine-protein kinase Sgk2 (Homo sapiens) (UniProt Q9HBY8); details: Compound concentration 1000.0 nM
[25] = target: Serine/threonine-protein kinase Nek11 (Homo sapiens) (UniProt Q8NG66); details: Compound concentration 1000.0 nM
[26] = system: Phosphatidylinositol 4,5-bisphosphate 3-kinase catalytic subunit alpha isoform (Homo sapiens), P42336 [Q546K]; details: Compound concentration 1000.0 nM
[27] = system: Tyrosine-protein kinase ABL1 (Homo sapiens), P00519 [H396P]; details: Compound concentration 1000.0 nM
[28] = target: Interleukin-1 receptor-associated kinase 3 (Homo sapiens) (UniProt Q9Y616); details: Compound concentration 1000.0 nM
[29] = target: Mast/stem cell growth factor receptor Kit (Homo sapiens) (UniProt P10721); details: Compound concentration 1000.0 nM
[30] = target: Death-associated protein kinase 3 (Homo sapiens, UniProt O43293); details: Compound concentration 1000.0 nM
[31] = target: D(1B) dopamine receptor (Homo sapiens) (UniProt P21918); details: Compound concentration 10.0 uM
[32] = target: Ribosomal protein S6 kinase alpha-2 (Homo sapiens) (UniProt Q15349); details: Compound concentration 1000.0 nM
[33] = target: Macrophage colony-stimulating factor 1 receptor (Homo sapiens) (UniProt P07333); details: Compound concentration 1000.0 nM
[34] = target: Mitogen-activated protein kinase kinase kinase 1 (Homo sapiens) (UniProt Q13233); details: Compound concentration 1000.0 nM
[35] = target: Tyrosine-protein kinase Srms (Homo sapiens) (UniProt Q9H3Y6); details: Compound concentration 1000.0 nM
[36] = target: Serine/threonine-protein kinase SIK2 (Homo sapiens) (UniProt Q9H0K1); details: Compound concentration 1000.0 nM
[37] = target: RAC-alpha serine/threonine-protein kinase (Homo sapiens) (UniProt P31749); details: Compound concentration 1000.0 nM
[38] = target: Megakaryocyte-associated tyrosine-protein kinase (Homo sapiens) (UniProt P42679); details: Compound concentration 1000.0 nM
[39] = target: Eukaryotic translation initiation factor 2-alpha kinase 1 (Homo sapiens) (UniProt Q9BQI3); details: Compound concentration 1000.0 nM
[40] = target: Mitogen-activated protein kinase kinase kinase 10 (Homo sapiens) (UniProt Q02779); details: Compound concentration 1000.0 nM
[41] = target: Mitogen-activated protein kinase kinase kinase 5 (Homo sapiens) (UniProt Q99683); details: Compound concentration 1000.0 nM
[42] = target: Mitotic checkpoint serine/threonine-protein kinase BUB1 (Homo sapiens) (UniProt O43683); details: Compound concentration 1000.0 nM
[43] = target: Alpha-2C adrenergic receptor (Homo sapiens) (UniProt P18825); details: Compound concentration 10.0 uM
[44] = target: Serine/threonine-protein kinase PLK2 (Homo sapiens) (UniProt Q9NYY3); details: Compound concentration 1000.0 nM
[45] = system: Receptor-type tyrosine-protein kinase FLT3 (Homo sapiens), P36888 [N841I]; details: Compound concentration 1000.0 nM

Chain of Mast/stem cell growth factor receptor Kit (Homo sapiens) (P10721 whole entry): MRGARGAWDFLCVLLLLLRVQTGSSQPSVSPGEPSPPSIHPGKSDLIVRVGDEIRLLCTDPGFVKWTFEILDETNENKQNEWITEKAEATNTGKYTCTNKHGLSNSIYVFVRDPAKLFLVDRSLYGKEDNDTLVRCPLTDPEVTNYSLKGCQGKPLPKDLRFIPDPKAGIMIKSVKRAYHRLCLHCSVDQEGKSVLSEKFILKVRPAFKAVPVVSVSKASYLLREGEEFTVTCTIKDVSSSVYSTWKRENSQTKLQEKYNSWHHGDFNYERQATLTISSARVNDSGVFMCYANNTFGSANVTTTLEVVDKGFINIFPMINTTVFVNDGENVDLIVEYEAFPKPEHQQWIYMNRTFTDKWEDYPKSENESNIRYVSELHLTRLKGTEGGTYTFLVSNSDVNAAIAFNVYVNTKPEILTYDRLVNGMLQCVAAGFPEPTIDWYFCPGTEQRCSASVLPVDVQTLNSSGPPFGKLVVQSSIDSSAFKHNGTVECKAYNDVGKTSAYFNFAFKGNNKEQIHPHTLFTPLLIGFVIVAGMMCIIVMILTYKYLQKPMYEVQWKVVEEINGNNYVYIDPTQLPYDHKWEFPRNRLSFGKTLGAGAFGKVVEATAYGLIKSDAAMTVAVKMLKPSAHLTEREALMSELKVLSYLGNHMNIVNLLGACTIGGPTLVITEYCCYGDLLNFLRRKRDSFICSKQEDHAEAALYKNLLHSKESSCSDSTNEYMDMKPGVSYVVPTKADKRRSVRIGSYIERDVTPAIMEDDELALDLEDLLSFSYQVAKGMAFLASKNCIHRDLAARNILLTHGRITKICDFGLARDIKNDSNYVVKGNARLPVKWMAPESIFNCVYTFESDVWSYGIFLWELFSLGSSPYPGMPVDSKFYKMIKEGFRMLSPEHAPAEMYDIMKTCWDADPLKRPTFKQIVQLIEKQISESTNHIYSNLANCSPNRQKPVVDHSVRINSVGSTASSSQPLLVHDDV
Chain of Serine/threonine-protein kinase Nek3 (Homo sapiens) (P51956 whole entry): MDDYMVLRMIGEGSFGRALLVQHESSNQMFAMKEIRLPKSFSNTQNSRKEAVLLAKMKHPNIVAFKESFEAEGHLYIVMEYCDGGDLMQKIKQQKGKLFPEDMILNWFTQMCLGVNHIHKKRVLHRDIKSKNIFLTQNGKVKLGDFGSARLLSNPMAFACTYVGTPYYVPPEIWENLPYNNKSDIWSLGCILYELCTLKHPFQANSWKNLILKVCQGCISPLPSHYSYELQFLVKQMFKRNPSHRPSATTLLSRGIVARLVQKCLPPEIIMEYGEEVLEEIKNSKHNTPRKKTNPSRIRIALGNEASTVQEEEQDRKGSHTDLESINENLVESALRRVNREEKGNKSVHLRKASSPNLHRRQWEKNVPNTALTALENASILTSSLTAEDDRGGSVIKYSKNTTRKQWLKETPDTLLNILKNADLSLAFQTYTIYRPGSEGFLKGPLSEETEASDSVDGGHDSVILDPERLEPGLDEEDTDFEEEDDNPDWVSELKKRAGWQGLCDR
Chain of Cyclin-dependent kinase 14 (Homo sapiens) (O94921 whole entry): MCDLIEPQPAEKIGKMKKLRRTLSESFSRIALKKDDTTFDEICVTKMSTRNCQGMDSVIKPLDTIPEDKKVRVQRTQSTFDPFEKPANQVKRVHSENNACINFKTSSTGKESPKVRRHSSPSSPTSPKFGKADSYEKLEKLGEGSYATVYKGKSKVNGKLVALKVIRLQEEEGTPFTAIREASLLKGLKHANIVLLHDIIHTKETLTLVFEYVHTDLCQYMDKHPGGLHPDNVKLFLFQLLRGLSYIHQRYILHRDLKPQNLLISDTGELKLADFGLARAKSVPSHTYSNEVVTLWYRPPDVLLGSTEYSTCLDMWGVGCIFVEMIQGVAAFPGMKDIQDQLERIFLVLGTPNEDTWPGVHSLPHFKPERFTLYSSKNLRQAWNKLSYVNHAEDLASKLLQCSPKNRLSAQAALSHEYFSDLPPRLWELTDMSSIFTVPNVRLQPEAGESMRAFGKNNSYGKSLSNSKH
Chain of Serine/threonine-protein kinase Nek11 (Homo sapiens) (Q8NG66 whole entry, canonical isoform): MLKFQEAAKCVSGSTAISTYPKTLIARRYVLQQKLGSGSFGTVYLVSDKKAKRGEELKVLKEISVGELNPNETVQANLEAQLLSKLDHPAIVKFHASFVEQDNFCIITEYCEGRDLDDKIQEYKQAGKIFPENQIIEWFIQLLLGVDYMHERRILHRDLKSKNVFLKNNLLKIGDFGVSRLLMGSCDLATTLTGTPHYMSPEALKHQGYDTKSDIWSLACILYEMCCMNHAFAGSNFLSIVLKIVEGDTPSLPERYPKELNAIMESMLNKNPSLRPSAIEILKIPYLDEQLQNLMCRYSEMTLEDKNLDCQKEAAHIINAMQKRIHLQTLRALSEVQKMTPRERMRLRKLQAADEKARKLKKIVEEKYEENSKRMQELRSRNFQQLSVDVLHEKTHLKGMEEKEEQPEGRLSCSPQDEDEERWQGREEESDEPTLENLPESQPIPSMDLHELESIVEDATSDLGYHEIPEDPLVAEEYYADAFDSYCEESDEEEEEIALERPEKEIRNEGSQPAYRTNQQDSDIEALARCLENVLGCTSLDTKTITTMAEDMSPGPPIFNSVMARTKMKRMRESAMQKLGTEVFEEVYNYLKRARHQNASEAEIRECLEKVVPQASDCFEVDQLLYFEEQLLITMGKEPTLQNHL
Chain of Phosphatidylinositol 4,5-bisphosphate 3-kinase catalytic subunit alpha isoform (Homo sapiens), P42336 [Q546K] (P42336 whole entry Q546K, canonical isoform): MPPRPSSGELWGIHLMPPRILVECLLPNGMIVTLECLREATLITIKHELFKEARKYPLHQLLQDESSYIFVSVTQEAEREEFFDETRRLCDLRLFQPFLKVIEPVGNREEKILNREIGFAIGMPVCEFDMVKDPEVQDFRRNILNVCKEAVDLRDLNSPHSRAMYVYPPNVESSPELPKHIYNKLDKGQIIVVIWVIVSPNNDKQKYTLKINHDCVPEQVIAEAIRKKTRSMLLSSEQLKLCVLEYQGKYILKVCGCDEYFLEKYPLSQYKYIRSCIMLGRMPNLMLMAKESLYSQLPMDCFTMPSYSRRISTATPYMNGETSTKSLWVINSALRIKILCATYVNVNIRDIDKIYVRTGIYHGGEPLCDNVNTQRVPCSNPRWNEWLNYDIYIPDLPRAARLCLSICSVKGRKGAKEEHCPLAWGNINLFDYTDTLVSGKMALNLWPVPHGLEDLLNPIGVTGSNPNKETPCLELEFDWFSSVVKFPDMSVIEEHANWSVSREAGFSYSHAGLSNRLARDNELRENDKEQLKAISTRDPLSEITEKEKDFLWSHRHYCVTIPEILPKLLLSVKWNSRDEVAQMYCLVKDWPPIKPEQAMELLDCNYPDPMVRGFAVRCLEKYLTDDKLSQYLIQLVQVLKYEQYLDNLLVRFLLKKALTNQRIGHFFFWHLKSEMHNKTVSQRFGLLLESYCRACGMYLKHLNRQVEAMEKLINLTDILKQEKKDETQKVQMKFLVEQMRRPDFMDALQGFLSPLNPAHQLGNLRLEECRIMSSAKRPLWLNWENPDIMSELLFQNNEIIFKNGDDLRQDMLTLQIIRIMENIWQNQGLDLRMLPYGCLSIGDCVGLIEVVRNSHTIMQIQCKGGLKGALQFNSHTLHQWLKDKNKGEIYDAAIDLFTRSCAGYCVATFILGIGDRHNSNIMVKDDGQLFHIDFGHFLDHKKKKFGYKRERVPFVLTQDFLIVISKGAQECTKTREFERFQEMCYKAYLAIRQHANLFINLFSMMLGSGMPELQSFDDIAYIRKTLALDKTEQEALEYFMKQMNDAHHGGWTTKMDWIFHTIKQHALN
Chain of Inhibitor of nuclear factor kappa-B kinase subunit epsilon (Homo sapiens) (Q14164 whole entry): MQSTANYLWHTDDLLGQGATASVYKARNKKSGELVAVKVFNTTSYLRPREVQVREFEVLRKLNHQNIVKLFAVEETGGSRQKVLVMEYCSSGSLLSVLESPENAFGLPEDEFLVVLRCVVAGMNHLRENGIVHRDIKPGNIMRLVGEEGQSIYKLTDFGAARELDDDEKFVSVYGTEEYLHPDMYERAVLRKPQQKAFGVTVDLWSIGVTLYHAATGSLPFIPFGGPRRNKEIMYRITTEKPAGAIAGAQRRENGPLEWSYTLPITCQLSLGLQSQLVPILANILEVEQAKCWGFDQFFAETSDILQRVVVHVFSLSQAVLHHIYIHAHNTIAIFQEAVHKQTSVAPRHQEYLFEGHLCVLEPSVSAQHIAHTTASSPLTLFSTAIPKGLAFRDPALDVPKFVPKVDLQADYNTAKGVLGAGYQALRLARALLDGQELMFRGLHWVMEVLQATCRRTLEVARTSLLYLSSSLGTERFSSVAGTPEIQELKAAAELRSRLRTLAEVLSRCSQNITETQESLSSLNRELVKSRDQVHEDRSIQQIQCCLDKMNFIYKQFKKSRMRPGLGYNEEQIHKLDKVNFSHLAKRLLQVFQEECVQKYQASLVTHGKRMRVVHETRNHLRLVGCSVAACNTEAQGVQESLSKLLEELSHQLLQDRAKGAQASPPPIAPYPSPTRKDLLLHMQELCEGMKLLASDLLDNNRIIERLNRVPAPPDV
Chain of Death-associated protein kinase 3 (O43293 whole entry, looked up): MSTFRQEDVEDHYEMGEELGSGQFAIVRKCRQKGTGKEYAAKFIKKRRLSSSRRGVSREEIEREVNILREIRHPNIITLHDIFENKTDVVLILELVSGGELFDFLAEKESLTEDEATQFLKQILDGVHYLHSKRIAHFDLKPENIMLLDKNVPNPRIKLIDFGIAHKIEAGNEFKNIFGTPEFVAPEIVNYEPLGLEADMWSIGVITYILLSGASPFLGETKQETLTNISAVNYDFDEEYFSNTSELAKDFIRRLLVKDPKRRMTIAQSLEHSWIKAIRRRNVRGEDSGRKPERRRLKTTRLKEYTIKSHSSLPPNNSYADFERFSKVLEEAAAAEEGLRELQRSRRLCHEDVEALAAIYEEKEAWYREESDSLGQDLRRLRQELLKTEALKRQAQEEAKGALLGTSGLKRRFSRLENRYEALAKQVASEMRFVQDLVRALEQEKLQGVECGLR
Chain of Mast/stem cell growth factor receptor Kit (Homo sapiens), P10721 [V559D,T670I] (P10721 whole entry V559D/T670I): as the sequence (P10721 whole entry) above, with V559D, T670I counted along it

O=c1nc(-c2ccccn2)sc2ccccc12 [BTZO-1]
residual activity [1]: 83% | residual activity [2]: 83% | residual activity [3]: 100% | residual activity [4]: 71% | residual activity [5]: 100% | residual activity [6]: 72% | residual activity [7]: 100% | residual activity [8]: 83% | residual activity [9]: 98% | residual activity [10]: 83% | residual activity [11]: 97% | residual activity [12]: 91% | residual activity [13]: 90% | residual activity [14]: 75% | residual activity [15]: 100% | residual activity [16]: 81% | residual activity [17]: 87% | residual activity [18]: 99% | residual activity [19]: 100% | residual activity [20]: 100% | residual activity [21]: 100% | inhibition [22]: -8.56% | residual activity [23]: 78% | residual activity [24]: 85% | residual activity [25]: 100% | residual activity [26]: 100% | residual activity [27]: 99% | residual activity [28]: 82% | residual activity [29]: 79% | residual activity [30]: 91% | inhibition [31]: 21.5% | residual activity [32]: 100% | residual activity [33]: 95% | residual activity [34]: 65% | residual activity [35]: 87% | residual activity [36]: 86% | residual activity [37]: 100% | residual activity [38]: 100% | residual activity [39]: 97% | residual activity [40]: 100% | residual activity [41]: 75% | residual activity [42]: 100% | inhibition [43]: -9.43% | residual activity [44]: 95% | residual activity [45]: 74%

O=C1NC(c2ccccn2)Sc2ccccc21 (stereo not given) [BTZO-4]
residual activity [1]: 72% | residual activity [2]: 87% | residual activity [3]: 72% | residual activity [4]: 79% | residual activity [5]: 100% | residual activity [6]: 80% | residual activity [7]: 100% | residual activity [8]: 86% | residual activity [9]: 72% | residual activity [10]: 69% | residual activity [11]: 72% | residual activity [12]: 76% | residual activity [13]: 77% | residual activity [14]: 90% | residual activity [15]: 94% | residual activity [16]: 100% | residual activity [17]: 93% | residual activity [18]: 70% | residual activity [19]: 100% | residual activity [20]: 100% | residual activity [21]: 100% | inhibition [22]: -1.52% | residual activity [23]: 99% | residual activity [24]: 72% | residual activity [25]: 95% | residual activity [26]: 100% | residual activity [27]: 84% | residual activity [28]: 87% | residual activity [29]: 89% | residual activity [30]: 0% | inhibition [31]: 11.2% | residual activity [32]: 93% | residual activity [33]: 91% | residual activity [34]: 55% | residual activity [35]: 84% | residual activity [36]: 96% | residual activity [37]: 89% | residual activity [38]: 100% | residual activity [39]: 79% | residual activity [40]: 94% | residual activity [41]: 72% | residual activity [42]: 100% | inhibition [43]: -4.89% | residual activity [44]: 97% | residual activity [45]: 60%
